Test results as given in patent US9040545B2, “Heterocyclyl pyrazolopyrimidine analogues as selective JAK inhibitors” (Cellzome Limited, priority 2010, dated 2015).
pIC50: −log10 of the molar value.

Key:
JAK2 = target: T1, JAK2 (Homo sapiens, UniProt O60674); experiment: Kinobeads assay, JAK2; assay type: binding; details: mixed Molt4/Ramos lysate, read-out: Inhibition values (IC50) JAK2
T1 construct: endogenous in cells; host or cells: mixed Molt4/Ramos lysate (1:2)
Protocol: (§1) The compounds of the present invention as described in the previous examples were tested in a Kinobeads™ assay as described for ZAP-70 (WO-A 2007/137867). Briefly, test compounds (at various concentrations) and the affinity matrix with the immobilized aminopyrido-pyrimidine ligand 24 were added to cell lysate aliquots and allowed to bind to the proteins in the lysate sample. After the incubation time the beads with captured proteins were separated from the lysate. Bound proteins were then eluted and the presence of JAK2 and JAK3 was detected and quantified using specific antibodies in a dot blot procedure and the Odyssey infrared detection system. Dose response curves for individual kinases were generated and IC50 values calculated. Kinobeads™ assays for ZAP-70 (WO-A 2007/137867) and for kinase selectivity profiling (WO-A 2006/134056) have been previously described.
(§2) The affinity matrix was washed two times with 15 mL of 1×DP buffer containing 0.2% NP40 (IGEPAL® CA-630, Sigma, #I3021) and then resuspended in 1×DP buffer containing 0.2% NP40 (3% beads slurry).
(§3) 5×DP buffer 250 mM Tris-HCl pH 7.4, 25% Glycerol, 7.5 mM MgCl2, 750 mM NaCl, 5 mM Na3VO4; filter the 5×DP buffer through a 0.22 μm filter and store in aliquots at −80° C. The 5×DP buffer is diluted with H2O to 1×DP buffer containing 1 mM DTT and 25 mM NaF.
(§4) Stock solutions of test compounds were prepared in DMSO. In a 96 well plate 30 μL solution of diluted test compounds at 5 mM in DMSO were prepared. Starting with this solution a 1:3 dilution series (9 steps) was prepared. For control experiments (no test compound) a buffer containing 2% DMSO was used.
Molt4 cells (ATCC catalogue number CRL-1582) and Ramos cells (ATCC catalogue number CRL-1596) were grown in 1 L Spinner flasks (Integra Biosciences, #182101) in suspension in RPMI 1640 medium (Invitrogen, #21875-034) supplemented with 10% Fetal Bovine Serum (Invitrogen) at a density between 0.15×106 and 1.2×10^6 cells/mL. Cells were harvested by centrifugation, washed once with 1×PBS buffer (Invitrogen, #14190-094) and cell pellets were frozen in liquid nitrogen and subsequently stored at −80° C. Cells were homogenized in a Potter S homogenizer in lysis buffer: 50 mM Tris-HCl, 0.8% NP40, 5% glycerol, 150 mM NaCl, 1.5 mM MgCl2, 25 mM NaF, 1 mM sodium vanadate, 1 mM DTT, pH 7.5. One complete EDTA-free tablet (protease inhibitor cocktail, Roche Diagnostics, 1873580) per 25 mL buffer was added. The material was dounced 10 times using a mechanized POTTER S, transferred to 50 mL falcon tubes, incubated for 30 minutes on ice and spun down for 10 minutes at 20,000 g at 4° C. (10,000 rpm in Sorvall SLA600, precooled). The supernatant was transferred to an ultracentrifuge (UZ)-polycarbonate tube (Beckmann, 355654) and spun for 1 hour at 100,000 g at 4° C. (33.500 rpm in Ti50.2, precooled). The supernatant was transferred again to a fresh 50 mL falcon tube, the protein concentration was determined by a Bradford assay (BioRad) and samples containing 50 mg of protein per aliquot were prepared. The samples were immediately used for experiments or frozen in liquid nitrogen and stored frozen at −80° C.
(§5) Cell lysate (approximately 50 mg protein per plate) was thawed in a water bath at room temperature and then stored on ice. To the thawed cell lysate 1×DP 0.8% NP40 buffer containing protease inhibitors (1 tablet for 25 mL buffer; EDTA-free protease inhibitor cocktail; Roche Diagnostics 1873580) was added in order to reach a final protein concentration of 10 mg/mL total protein. The diluted cell lysate was stored on ice. Mixed Molt4/Ramos lysate was prepared by combining one volume of Molt4 lysate and two volumes of Ramos lysate (ratio 1:2).
To a 96 well filter plate (Multiscreen HTS, BV Filter Plates, Millipore #MSBVN1250) were added per well: 100 μL affinity matrix (3% beads slurry), 3 μL of compound solution, and 50 μL of diluted lysate. […]

Aurora A = target: T2, Aurora A (Homo sapiens, UniProt O14965); experiment: Kinobeads assay, Aurora A; assay type: binding; details: for pIC50: lysate of pervanadate-treated Jurkat cells, read-out: Inhibition values (IC50) Aur A
T2 construct: cell lysates from Jurkat cells (ATCC TIB-152) used; endogenous in cells; host or cells: Jurkat cells (ATCC TIB-152), treated with pervanadate
T2 sequence (O14965 1-403): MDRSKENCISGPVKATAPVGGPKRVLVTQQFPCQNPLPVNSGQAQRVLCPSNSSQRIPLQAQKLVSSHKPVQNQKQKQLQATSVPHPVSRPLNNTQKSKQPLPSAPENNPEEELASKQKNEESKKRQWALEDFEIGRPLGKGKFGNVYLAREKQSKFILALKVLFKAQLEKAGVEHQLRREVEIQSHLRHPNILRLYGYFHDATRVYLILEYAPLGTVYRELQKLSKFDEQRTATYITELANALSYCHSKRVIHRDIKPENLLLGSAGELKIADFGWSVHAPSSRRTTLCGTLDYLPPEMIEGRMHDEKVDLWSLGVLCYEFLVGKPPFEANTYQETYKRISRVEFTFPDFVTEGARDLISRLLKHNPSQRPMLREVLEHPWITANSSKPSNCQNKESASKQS
Protocol: as §1, §2, §3, §4, §5
To a 96 well filter plate (Multiscreen HTS, BV Filter Plates, Millipore #MSBVN1250) were added per well: 100 μL affinity matrix (3% beads slurry), 3 μL of compound solution, and 50 μL of diluted lysate. Plates were sealed and incubated for 3 hours in a cold room on a plate shaker (Heidolph tiramax 1000) at 750 rpm. Afterwards the plate was washed 3 times with 230 μL washing buffer (1×DP 0.4% NP40). The filter plate was placed on top of a collection 1 plate (Greiner bio-one, PP-microplate 96 well V-shape, 65120) and the beads were then eluted with 20 μL of sample buffer (100 mM Tris, pH 7.4, 4% SDS, 0.00025% bromophenol blue, 20% glycerol, 50 mM DTT). The eluate was frozen quickly at −80° C. and stored at −20° C.
The kinases in the eluates were detected and quantified by spotting on nitrocellulose membranes and using a first antibody directed against the kinase of interest and a fluorescently labelled secondary antibody (anti-rabbit IRDye™ antibody 800 (Licor, #926-32211). The Odyssey Infrared Imaging system from LI-COR Biosciences (Lincoln, Nebr., USA) was operated according to instructions provided by the manufacturer (Schutz-Geschwendener et al, 2004. Quantitative, two-color Western blot detection with infrared fluorescence. Published May 2004 by LI-COR Biosciences, www.licor.com).
After spotting of the eluates the nitrocellulose membrane (BioTrace NT; PALL, #BTNT30R) was first blocked by incubation with Odyssey blocking buffer (LICOR, 927-40000) for 1 hour at room temperature. Blocked membranes were then incubated for 16 hours at the temperature shown in Table 5 with the first antibody diluted in Odyssey blocking buffer (LICOR #927-40000). Afterwards the membrane was washed twice for 10 minutes with PBS buffer containing 0.2% Tween 20 at room temperature. […]

T1 sequence (O60674 whole entry): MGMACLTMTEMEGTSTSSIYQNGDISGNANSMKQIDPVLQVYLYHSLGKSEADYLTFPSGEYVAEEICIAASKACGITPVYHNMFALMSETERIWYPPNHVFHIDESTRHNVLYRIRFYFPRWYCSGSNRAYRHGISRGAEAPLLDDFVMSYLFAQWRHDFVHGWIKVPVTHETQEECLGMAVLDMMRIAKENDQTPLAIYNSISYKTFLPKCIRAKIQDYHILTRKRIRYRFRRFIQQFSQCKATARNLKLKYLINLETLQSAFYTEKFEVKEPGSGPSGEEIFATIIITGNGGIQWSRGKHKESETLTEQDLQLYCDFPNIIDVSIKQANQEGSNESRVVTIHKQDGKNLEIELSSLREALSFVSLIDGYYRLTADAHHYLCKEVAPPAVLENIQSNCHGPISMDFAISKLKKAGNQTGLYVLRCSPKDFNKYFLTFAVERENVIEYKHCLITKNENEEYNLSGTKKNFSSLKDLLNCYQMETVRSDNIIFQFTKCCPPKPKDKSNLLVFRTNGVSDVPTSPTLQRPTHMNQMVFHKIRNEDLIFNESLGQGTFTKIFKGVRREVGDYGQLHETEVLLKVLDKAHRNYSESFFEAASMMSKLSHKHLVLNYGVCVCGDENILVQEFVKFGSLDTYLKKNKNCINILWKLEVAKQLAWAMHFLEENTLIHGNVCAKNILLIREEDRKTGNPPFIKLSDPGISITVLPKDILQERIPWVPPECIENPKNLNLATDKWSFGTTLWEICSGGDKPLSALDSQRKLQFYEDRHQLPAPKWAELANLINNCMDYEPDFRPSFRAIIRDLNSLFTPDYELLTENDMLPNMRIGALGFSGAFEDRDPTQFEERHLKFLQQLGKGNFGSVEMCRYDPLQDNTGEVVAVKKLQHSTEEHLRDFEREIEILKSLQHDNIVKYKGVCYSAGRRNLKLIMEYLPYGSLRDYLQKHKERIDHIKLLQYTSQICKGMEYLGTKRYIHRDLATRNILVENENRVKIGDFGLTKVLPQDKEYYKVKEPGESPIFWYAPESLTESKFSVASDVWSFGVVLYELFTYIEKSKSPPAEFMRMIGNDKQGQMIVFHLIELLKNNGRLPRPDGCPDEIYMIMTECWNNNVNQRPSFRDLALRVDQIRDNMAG

Row | Structure (SMILES) | pIC50 (JAK2) | JAK3/AurA Fold Selectivity (Aurora A) | pIC50 (Aurora A)
1 | CCOC(=O)C1CCCN(c2cccc(Cn3ncc4cnc(Nc5cnn(C)c5)nc43)c2)C1 (stereo not drawn) [Example 13, Ethyl 1-(3-((6-((1-methyl-1H-pyrazol-4-yl)amino)-1H-pyrazolo[3,4-d]pyrimidin-1-yl)methyl)phenyl)piperidine-3-carboxylate] | ≤ 5.00 | 3-10 Fold | 5.00 to 6.00
2 | NC(=O)CCn1cc(Nc2ncc3cnn(Cc4cccc(N5CCOCC5)c4)c3n2)cn1 [Example 14, 3-(4-((1-(3-Morpholinobenzyl)-1H-pyrazolo[3,4-d]pyrimidin-6-yl)amino)-1H-pyrazol-1-yl)propanamide] | ≤ 5.00 | 10-50 Fold | 6.00 to 7.00
3 | Cn1cc(Nc2ncc3cnn(Cc4cc(N5CCOCC5)ccc4F)c3n2)cn1 [Example 15, 1-(2-Fluoro-5-morpholinobenzyl)-N-(1-methyl-1H-pyrazol-4-yl)-1H-pyrazolo[3,4-d]pyrimidin-6-amine] | ≤ 5.00 | 10-50 Fold | 5.00 to 6.00
4 | CN(C)C(=O)CCn1cc(Nc2ncc3cnn(Cc4cccc(N5CCOCC5)c4)c3n2)cn1 [Example 16, N,N-Dimethyl-3-(4-((1-(3-morpholinobenzyl)-1H-pyrazolo[3,4-d]pyrimidin-6-yl)amino)-1H-pyrazol-1-yl)propanamide] | 5.00 to 6.00 | 10-50 Fold | 6.00 to 7.00
5 | Cn1cc(Nc2ncc3cnn(Cc4c(F)c(F)cc(N5CCOCC5)c4F)c3n2)cn1 [Example 17, N-(1-Methyl-1H-pyrazol-4-yl)-1-(2,3,6-trifluoro-5-morpholinobenzyl)-1H-pyrazolo[3,4-d]pyrimidin-6-amine] | 5.00 to 6.00 | >50 Fold | 5.00 to 6.00
6 | OCCCn1cc(Nc2ncc3cnn(Cc4cccc(N5CCOCC5)c4)c3n2)cn1 [Example 18, 3-(4-((1-(3-Morpholinobenzyl)-1H-pyrazolo[3,4-d]pyrimidin-6-yl)amino)-1H-pyrazol-1-yl)propan-1-ol] | ≤ 5.00 | 10-50 Fold | 6.00 to 7.00
7 | Cn1cc(Nc2ncc3cnn(Cc4cccc(N5CCC(F)(F)CC5)c4)c3n2)cn1 [Example 19, 1-(3-(4,4-Difluoropiperidin-1-yl)benzyl)-N-(1-methyl-1H-pyrazol-4-yl)-1H-pyrazolo[3,4-d]pyrimidin-6-amine] | ≤ 5.00 | 10-50 Fold | 5.00 to 6.00
8 | O=C(CCn1cc(Nc2ncc3cnn(Cc4cccc(N5CCOCC5)c4)c3n2)cn1)N1CCCCC1 [Example 20, 3-(4-((1-(3-Morpholinobenzyl)-1H-pyrazolo[3,4-d]pyrimidin-6-yl)amino)-1H-pyrazol-1-yl)-1-(piperidin-1-yl)propan-1-one] | ≤ 5.00 | 10-50 Fold | 6.00 to 7.00
9 | Cn1cc(Nc2ncc3cnn(Cc4cccc(N5CCOCC5)c4F)c3n2)cn1 [Example 21, 1-(2-Fluoro-3-morpholinobenzyl)-N-(1-methyl-1H-pyrazol-4-yl)-1H-pyrazolo[3,4-d]pyrimidin-6-amine] | 5.00 to 6.00 | >50 Fold | 6.00 to 7.00
10 | Cn1cc(Nc2ncc3cnn(Cc4cccc(N5CCNCC5)c4)c3n2)cn1 [Example 22, N-(1-Methyl-1H-pyrazol-4-yl)-1-(3-(piperazin-1-yl)benzyl)-1H-pyrazolo[3,4-d]pyrimidin-6-amine] | 5.00 to 6.00 | 10-50 Fold | 6.00 to 7.00
11 | FC(F)Cn1cc(Nc2ncc3cnn(Cc4cccc(N5CCOCC5)c4)c3n2)cn1 [Example 23, N-(1-(2,2-Difluoroethyl)-1H-pyrazol-4-yl)-1-(3-morpholinobenzyl)-1H-pyrazolo[3,4-d]pyrimidin-6-amine] | ≤ 5.00 | 3-10 Fold | 6.00 to 7.00
12 | CNC(=O)CCn1cc(Nc2ncc3cnn(Cc4cccc(N5CCOCC5)c4)c3n2)cn1 [Example 24, N-Methyl-3-(4-((1-(3-morpholinobenzyl)-1H-pyrazolo[3,4-d]pyrimidin-6-yl)amino)-1H-pyrazol-1-yl)propanamide] | ≤ 5.00 | 10-50 Fold | 6.00 to 7.00
13 | Cn1cc(Nc2ncc3cnn(Cc4cccc(N5CCS(=O)(=O)CC5)c4)c3n2)cn1 [Example 25, 4-(3-((6-((1-Methyl-1H-pyrazol-4-yl)amino)-1H-pyrazolo[3,4-d]pyrimidin-1-yl)methyl)phenyl)thiomorpholine 1,1-dioxide] | ≤ 5.00 | 10-50 Fold | 6.00 to 7.00
14 | Cn1cc(Nc2ncc3cnn(Cc4cccc(N5CC6CCC(C5)O6)c4)c3n2)cn1 [Example 26] | ≤ 5.00 | 3-10 Fold | 6.00 to 7.00
15 | Cn1cc(Nc2ncc3cnn(Cc4cccc(N5CCOCC5=O)c4)c3n2)cn1 [Example 27, 4-(3-((6-((1-Methyl-1H-pyrazol-4-yl)amino)-1H-pyrazolo[3,4-d]pyrimidin-1-yl)methyl)phenyl)morpholin-3-one] | 5.00 to 6.00 | 10-50 Fold | 6.00 to 7.00
